Test results as given in BindingDB's records for doi:10.1111/cbdd.12793 (Nanjing University, 2016).

Molecular target: Tyrosine--tRNA ligase (Staphylococcus aureus (strain MSSA476), UniProt Q6G8J9)
Experiment: In vitro Enzyme Inhibition Assay
Settings: pH 7.9
Method: The assays were conducted at 37 °C in a mixture containing 100 mM Tris/Cl pH 7.9, 50 mM KCl, 16 mM MgCl2, 5 mM ATP, 3 mM DTT, 4 mg/ml E. coli MRE600 tRNA (Roche) and 10 μM L-tyrosine (0.3 μM L-[ring-3,5-3H] tyrosine (PerkinElmer, Specific activity: 1.48-2.22 TBq/mmol), 10 μM carrier). Above all, TyrRS (0.2 nM) was pre-incubated with kinds of concentrations inhibitor for 10 min (RT) followed by the addition of pre-warmed mixture and moved them together to 37 °C. After specific intervals, the reaction was ended by the addition of aliquots of the reaction mix into gelid 7% trichloroacetic acid and harvested onto […] hydrophilic Durapore filters (Millipore Multiscreen 96-well plates) and counted by liquid scintillation.

Structure (SMILES)	IC50
Cc1ncc([N+](=O)[O-])n1CCOC(=O)c1cc(-c2ccc(Cl)cc2)n(-c2ccc(Cl)cc2)n1 [2-(2-Methyl-5-nitro-1H-imidazol-1-yl)-ethyl-1,5-bis(4-chlorophenyl)-1H-pyrazole-3-carboxylate (4n)]	53.1 µM
Cc1ccc(-c2cc(C(=O)OCCn3c([N+](=O)[O-])cnc3C)nn2-c2ccc(C)cc2)cc1 [2-(2-Methyl-5-nitro-1H-imidazol-1-yl)-ethyl-1,5-di-p-tolyl-1H-pyrazole-3-carboxylate (4b)]	31.9 µM
Cc1ncc([N+](=O)[O-])n1CCOC(=O)c1cc(-c2cccc(F)c2)n(-c2ccc(Cl)cc2)n1 [2-(2-Methyl-5-nitro-1H-imidazol-1-yl)-ethyl-1-(4-chlorophenyl)-5-(3-fluorophenyl)-1H-pyrazole-3-carboxylate (4y)]	60.1 µM
Cc1ncc([N+](=O)[O-])n1CCOC(=O)c1cc(-c2ccc(F)cc2)n(-c2ccc(Cl)cc2)n1 [2-(2-Methyl-5-nitro-1H-imidazol-1-yl)-ethyl-1-(4-chlorophenyl)-5-(4-fluorophenyl)-1H-pyrazole-3-carboxylate (4m)]	64.4 µM
Cc1ncc([N+](=O)[O-])n1CCOC(=O)c1cc(-c2ccc(I)cc2)n(-c2ccc(Cl)cc2)n1 [2-(2-Methyl-5-nitro-1H-imidazol-1-yl)-ethyl-1-(4-chlorophenyl)-5-(4-iodophenyl)-1H-pyrazole-3-carboxylate (4o)]	13.3 µM
COc1ccc(-c2cc(C(=O)OCCn3c([N+](=O)[O-])cnc3C)nn2-c2ccc(Cl)cc2)cc1 [2-(2-Methyl-5-nitro-1H-imidazol-1-yl)-ethyl-1-(4-chlorophenyl)-5-(4-methoxyphenyl)-1H-pyrazole-3-carboxylate (4k)]	1.67 µM
Cc1cccc(-c2cc(C(=O)OCCn3c([N+](=O)[O-])cnc3C)nn2-c2ccc(Cl)cc2)c1 [2-(2-Methyl-5-nitro-1H-imidazol-1-yl)-ethyl-1-(4-chlorophenyl)-5-(m-tolyl)-1H-pyrazole-3-carboxylate (4w)]	29.2 µM
Cc1ccccc1-c1cc(C(=O)OCCn2c([N+](=O)[O-])cnc2C)nn1-c1ccc(Cl)cc1 [2-(2-Methyl-5-nitro-1H-imidazol-1-yl)-ethyl-1-(4-chlorophenyl)-5-(o-tolyl)-1H-pyrazole-3-carboxylate (4q)]	5.11 µM
Cc1ccc(-c2cc(C(=O)OCCn3c([N+](=O)[O-])cnc3C)nn2-c2ccc(Cl)cc2)cc1 [2-(2-Methyl-5-nitro-1H-imidazol-1-yl)-ethyl-1-(4-chlorophenyl)-5-(p-tolyl)-1H-pyrazole-3-carboxylate (4l)]	18.1 µM
Cc1ncc([N+](=O)[O-])n1CCOC(=O)c1cc(-c2ccccc2)n(-c2ccc(Cl)cc2)n1 [2-(2-Methyl-5-nitro-1H-imidazol-1-yl)-ethyl-1-(4-chlorophenyl)-5-phenyl-1H-pyrazole-3-carboxylate (4s)]	16.5 µM
Cc1ccc(-n2nc(C(=O)OCCn3c([N+](=O)[O-])cnc3C)cc2-c2ccc(Cl)cc2)cc1 [2-(2-Methyl-5-nitro-1H-imidazol-1-yl)-ethyl-5-(4-chlorophenyl)-1-(p-tolyl)-1H-pyrazole-3-carboxylate (4d)]	47.8 µM
Cc1ccc(-n2nc(C(=O)OCCn3c([N+](=O)[O-])cnc3C)cc2-c2ccc(F)cc2)cc1 [2-(2-Methyl-5-nitro-1H-imidazol-1-yl)-ethyl-5-(4-fluorophenyl)-1-(p-tolyl)-1H-pyrazole-3-carboxylate (4c)]	56 µM
Cc1ccc(-n2nc(C(=O)OCCn3c([N+](=O)[O-])cnc3C)cc2-c2ccc(I)cc2)cc1 [2-(2-Methyl-5-nitro-1H-imidazol-1-yl)-ethyl-5-(4-iodophenyl)-1-(p-tolyl)-1H-pyrazole-3-carboxylate (4e)]	40.5 µM
COc1ccc(-c2cc(C(=O)OCCn3c([N+](=O)[O-])cnc3C)nn2-c2ccc(C)cc2)cc1 [2-(2-Methyl-5-nitro-1H-imidazol-1-yl)-ethyl-5-(4-methoxyphenyl)-1-(p-tolyl)-1H-pyrazole-3-carboxylate (4a)]	10.8 µM
COc1ccc(-c2cc(C(=O)OCCn3c([N+](=O)[O-])cnc3C)nn2-c2ccccc2)cc1 [2-(2-Methyl-5-nitro-1H-imidazol-1-yl)-ethyl-5-(4-methoxyphenyl)-1-phenyl-1H-pyrazole-3-carboxylate (4f)]	0.92 µM

Further lines, results first:

IC50	Structure (SMILES)
63.1 µM	Cc1ncc([N+](=O)[O-])n1CCOC(=O)c1cc(-c2ccccc2)n(-c2ccccc2)n1 [2-(2-Methyl-5-nitro-1H-imidazol-1-yl)-ethyl-1,5-diphenyl-1H-pyrazole-3-carboxylate (4r)]
76.2 µM	Cc1ncc([N+](=O)[O-])n1CCOC(=O)c1cc(-c2ccccc2F)n(-c2ccc(Cl)cc2)n1 [2-(2-Methyl-5-nitro-1H-imidazol-1-yl)-ethyl-1-(4-chlorophenyl)-5-(2-fluorophenyl)-1H-pyrazole-3-carboxylate (4u)]
21.6 µM	Cc1cccc(-c2cc(C(=O)OCCn3c([N+](=O)[O-])cnc3C)nn2-c2ccccc2)c1 [2-(2-Methyl-5-nitro-1H-imidazol-1-yl)-ethyl-1-phenyl-5-(m-tolyl)-1H-pyrazole-3-carboxylate (4v)]
4.55 µM	Cc1ccccc1-c1cc(C(=O)OCCn2c([N+](=O)[O-])cnc2C)nn1-c1ccccc1 [2-(2-Methyl-5-nitro-1H-imidazol-1-yl)-ethyl-1-phenyl-5-(o-tolyl)-1H-pyrazole-3-carboxylate (4p)]
60.8 µM	Cc1ccc(-c2cc(C(=O)OCCn3c([N+](=O)[O-])cnc3C)nn2-c2ccccc2)cc1 [2-(2-Methyl-5-nitro-1H-imidazol-1-yl)-ethyl-1-phenyl-5-(p-tolyl)-1H-pyrazole-3-carboxylate (4g)]
95.4 µM	Cc1ncc([N+](=O)[O-])n1CCOC(=O)c1cc(-c2ccccc2F)n(-c2ccccc2)n1 [2-(2-Methyl-5-nitro-1H-imidazol-1-yl)-ethyl-5-(2-fluorophenyl)-1-phenyl-1H-pyrazole-3-carboxylate (4t)]
84.1 µM	Cc1ncc([N+](=O)[O-])n1CCOC(=O)c1cc(-c2cccc(F)c2)n(-c2ccccc2)n1 [2-(2-Methyl-5-nitro-1H-imidazol-1-yl)-ethyl-5-(3-fluorophenyl)-1-phenyl-1H-pyrazole-3-carboxylate (4x)]
21.2 µM	Cc1ncc([N+](=O)[O-])n1CCOC(=O)c1cc(-c2ccc(Cl)cc2)n(-c2ccccc2)n1 [2-(2-Methyl-5-nitro-1H-imidazol-1-yl)-ethyl-5-(4-chlorophenyl)-1-phenyl-1H-pyrazole-3-carboxylate (4i)]
70 µM	Cc1ncc([N+](=O)[O-])n1CCOC(=O)c1cc(-c2ccc(F)cc2)n(-c2ccccc2)n1 [2-(2-Methyl-5-nitro-1H-imidazol-1-yl)-ethyl-5-(4-fluorophenyl)-1-phenyl-1H-pyrazole-3-carboxylate (4h)]
36.7 µM	Cc1ncc([N+](=O)[O-])n1CCOC(=O)c1cc(-c2ccc(I)cc2)n(-c2ccccc2)n1 [2-(2-Methyl-5-nitro-1H-imidazol-1-yl)-ethyl-5-(4-iodophenyl)-1-phenyl-1H-pyrazole-3-carboxylate (4j)]
